# Data from article PMC11822212, “High-throughput screening identifies Aurora kinase B as a critical therapeutic target for Merkel cell carcinoma” (Nature Communications, 2025).
# Where a name gives a salt, the structure may show the parent alone. Read-outs that look alike come from different tables or passages of the source.
# Legend:
# MCC13 cells (VN-MCC) = experiment: qHTS cell viability (CellTiter-Glo, 72 h; primary and follow-up small molecule screen); assay type: cell-based, human
# MCC26 cells (VN-MCC) = experiment: as above; assay type: cell-based, human
# UISO cells (VN-MCC) = experiment: as above; assay type: cell-based, human
# WAGA cells (VP-MCC) = experiment: as above; assay type: cell-based, human
# MKL-1 cells (VP-MCC) = experiment: as above; assay type: cell-based, human
# MKL-2 cells (VP-MCC) = experiment: as above; assay type: cell-based, human
# HACAT cells = experiment: qHTS cell viability (CellTiter-Glo, 72 h; primary screen), control cell line; assay type: cell-based, human
# HEK293T cells = experiment: as above; assay type: cell-based, human
# NIH-3T3 cells = experiment: as above; assay type: cell-based, mouse
# CRL-7250 cells = experiment: as above; assay type: cell-based
# [1] = system: MCC cell lines (WAGA, MKL-1, MKL-2, MCC13, MCC26, UISO); experiment: qHTS cell viability, all six MCC cell lines as a group (mean AUC, MCC.avg); assay type: cell-based, human; conditions: NPC library
# [2] = system: VP-MCC cell lines (WAGA, MKL-1, MKL-2); experiment: qHTS cell viability, VP-MCC cell lines as a group (mean AUC, VP.MCC.avg); assay type: cell-based, human; conditions: for VP-MCC_Avg_AUC: mean AUC of VP-MCC cell lines
# [3] = system: VN-MCC cell lines (MCC13, MCC26, UISO); experiment: qHTS cell viability, VN-MCC cell lines as a group (mean AUC, VN.MCC.avg); assay type: cell-based, human; conditions: for VN-MCC_Avg_AUC: mean AUC of VN-MCC cell lines
# [4] = system: control cell lines (HACAT, HEK293T, CRL-7250, NIH-3T3); experiment: qHTS cell viability, control cell lines as a group (mean AUC, Control.avg); assay type: cell-based; conditions: NPC library; mean AUC of control cell lines
# [5] = system: six MCC cell lines and four control cell lines; experiment: qHTS cell viability, all 10 cell lines screened; assay type: cell-based
# [6] = NPC library, qHTS dose-response AUC, MCC13
# [7] = NPC library; qHTS dose-response AUC, MCC26
# [8] = NPC library, qHTS dose-response AUC, UISO
# [9] = NPC library, qHTS dose-response AUC, WAGA
# [10] = NPC library, qHTS dose-response AUC, MKL1
# [11] = NPC library, qHTS dose-response AUC, MKL2
# [12] = NPC library, qHTS dose-response AUC, HACAT control
# [13] = NPC library; qHTS dose-response AUC, HEK293T control
# [14] = NPC library, qHTS dose-response AUC, NIH3T3 control
# [15] = NPC library, qHTS dose-response AUC, CRL7250 control
# [16] = NPC library, therapeutic window: Control avg AUC minus VP-MCC avg AUC
# [17] = NPC library, therapeutic window: Control avg AUC minus VN-MCC avg AUC
# [18] = NPC library, therapeutic window: Control avg AUC minus MCC avg AUC
# [19] = area under the dose-response curve, MCC13 cells, AUC<450 = reduced viability
# [20] = area under the dose-response curve, MCC26 cells; AUC<450 = reduced viability
# [21] = area under the dose-response curve, UISO cells, AUC<450 = reduced viability
# [22] = area under the dose-response curve, WAGA cells, AUC<450 = reduced viability
# [23] = area under the dose-response curve, MKL-2 cells, AUC<450 = reduced viability
# [24] = area under the dose-response curve, HACAT control cells, AUC<450 = reduced viability
# [25] = area under the dose-response curve, HEK293T control cells; AUC<450 = reduced viability
# [26] = area under the dose-response curve, NIH3T3 control cells, AUC<450 = reduced viability
# [27] = area under the dose-response curve, CRL7250 control cells, AUC<450 = reduced viability
Compound,MCC13_AUC (MCC13 cells (VN-MCC); [6]),UISO_AUC (UISO cells (VN-MCC); [8]),WAGA_AUC (WAGA cells (VP-MCC); [9]),MKL1_AUC (MKL-1 cells (VP-MCC); [10]),MKL2_AUC (MKL-2 cells (VP-MCC); [11]),HACAT_AUC (HACAT cells; [12]),NIH3T3_AUC (NIH-3T3 cells; [14]),CRL7250_AUC (CRL-7250 cells; [15]),MCC_Avg_AUC ([1]; mean AUC of six MCC cell lines),VP-MCC_Avg_AUC ([2]; NPC library),"Control-VP-MCC [2, 16]",VN-MCC_Avg_AUC ([3]; NPC library),"Control-VN-MCC [3, 17]",Control_Avg_AUC [4],"Control-MCC [5, 18]",also measured
N=C(N)NN=C(/C=C/c1ccc([N+](=O)[O-])o1)/C=C/c1ccc([N+](=O)[O-])o1 [Nitrovin],392.271,349.388,248.028,291.263,260.273,415.924,385.648,323.737,325.445,266.521,103.891,384.368,-13.9562,370.412,44.9672,MCC26_AUC (MCC26 cells (VN-MCC); [7]): 411.446; HEK293T_AUC (HEK293T cells; [13]): 356.338
CC[N+]1(CC)CCC(=C(c2ccccc2)c2ccccc2)C1C (centres unmarked) [Prifinium bromide],477.436,446.738,419.066,413.62,411.638,452.968,466.796,489.513,443.502,414.775,53.5255,472.229,-3.929,468.3,24.7984,MCC26_AUC (MCC26 cells (VN-MCC); [7]): 492.512; HEK293T_AUC (HEK293T cells; [13]): 463.923
CCN(CC)CCNC(=O)c1ccc(NC(C)=O)cc1 [Acecainide hydrochloride],428.813,444.571,423.417,419.008,429.744,489.271,480.581,485.167,421.904,424.056,54.3246,419.752,58.6293,478.381,56.4769,"MCC13_AUC (MCC13 cells (VN-MCC); [19]): 428.813; MCC26_AUC (MCC26 cells (VN-MCC); NPC library, qHTS dose-response AUC, MCC26): 385.871; MCC26_AUC (MCC26 cells (VN-MCC); [20]): 385.871; UISO_AUC (UISO cells (VN-MCC); [21]): 444.571; WAGA_AUC (WAGA cells (VP-MCC); [22]): 423.417; MKL1_AUC (MKL-1 cells (VP-MCC); {}): 419.008; MKL2_AUC (MKL-2 cells (VP-MCC); [23]): 429.744; HACAT_AUC (HACAT cells; [24]): 489.271; HEK293T_AUC (HEK293T cells; NPC library, qHTS dose-response AUC, HEK293T control): 458.505; HEK293T_AUC (HEK293T cells; [25]): 458.505; NIH3T3_AUC (NIH-3T3 cells; [26]): 480.581; CRL7250_AUC (CRL-7250 cells; [27]): 485.167; MCC_Avg_AUC ([1]; mean AUC of all 6 MCC cell lines): 421.904; Control-VP-MCC ([2]; Control AUC minus VP-MCC AUC): 54.3246; Control-VN-MCC ([3]; Control AUC minus VN-MCC AUC): 58.6292"
COc1cc2nc(N3CCN(C(=O)C4CCCO4)CC3)nc(N)c2cc1OC (centres unmarked) [Terazosin hydrochloride],–,–,–,–,–,–,–,–,–,–,–,–,–,–,–,Control-VP-MCC [2]: 51.2361; Control-VN-MCC [3]: 50.4982; Control-MCC [5]: 50.8672
CCC(=O)C(CC(C)N(C)C)(c1ccccc1)c1ccccc1 (centres unmarked) [Methadone hydrochloride],–,–,–,–,–,–,–,–,–,–,–,–,–,–,–,Control-VP-MCC [2]: 55.4471; Control-VN-MCC [3]: 44.0199; Control-MCC [5]: 49.7335
CCOC(=O)N1CCC(=C2c3ccc(Cl)cc3CCc3cccnc32)CC1 [Loratadine],–,–,–,–,–,–,–,–,–,–,67.0216,–,36.1824,–,51.602,–
C[N+]1(CC2COC(c3ccccc3)(C3CCCCC3)O2)CCCCC1 (centres unmarked) [Oxapium iodide],–,–,–,–,–,–,–,–,–,–,–,–,–,–,–,"MCC13_AUC (MCC13 cells (VN-MCC); [19]): 501.634; MCC26_AUC (MCC26 cells (VN-MCC); [20]): 482.458; UISO_AUC (UISO cells (VN-MCC); [21]): 505.529; WAGA_AUC (WAGA cells (VP-MCC); [22]): 422.785; MKL1_AUC (MKL-1 cells (VP-MCC); area under the dose-response curve, MKL-1 cells, AUC<450 = reduced viability): 436.858; MKL2_AUC (MKL-2 cells (VP-MCC); [23]): 426.411; HACAT_AUC (HACAT cells; [24]): 474.271; HEK293T_AUC (HEK293T cells; [25]): 460.835; NIH3T3_AUC (NIH-3T3 cells; [26]): 474.75; CRL7250_AUC (CRL-7250 cells; [27]): 483.841"
